Measured values reported in US20140094521A1, “BENZYLAMINE DERIVATIVE” (priority 2011, published 2014).

Assays:
Type in all cases: cell-based
[1] = system: SP cell of human multiple myeloma cell line RPMI8226; assay: Anticancer activity against SP cell (Hoechst33342 flow cytometry); conditions: 5 μM
Experimental: A stem cell can undergo differentiation into various tissues and cells such as a hematopoietic stem cell, and has the quality to exclude fluorescent chemical substance such as Hoechst33258 extracellularly. […] A cell having such properties is called as an SP cell, i.e. Side Population Cell. […] Therefore, an effect of the present invention compound against a cancerous SP cell was examined.
Specifically, human multiple myeloma cell line RPMI8226 was incubated in the presence of the present invention compound similarly to Example 4. The cell was dispersed in 3% FBS DMEH so that the concentration became 1×10^6 cells/mL. A temperature of the dispersion was increased to 37° C., and then Hoechst33342 was added thereto so that the concentration thereof became 5 μg/ml. The mixture was incubated at 37° C. for 60 minutes under a shaded state with stirring every 20 minutes. Then, the mixture was centrifuged at 800×g for 3 minutes, and the supernatant was removed. Further, a washing procedure in which cooled 2% FES PBS was added, the mixture was centrifuged and the supernatant was removed was repeated two times. Separately, propidium iodide was dissolved in PBS to obtain a 200 μg/mL solution. […] The emitted fluorescence was passed through a bandpass filters of 450 nm and 675 nm, and deployed to obtain a two-dimensional dot plot. […]

[2] = system: Human multiple myeloma cell line RPMI8226; assay: Anticancer activity against multiple myeloma cell (Cell Counting Kit-8, 3 days); conditions: RPMI-8226, 72 h, read-out: IC50 value against a multiple myeloma cell
Experimental: Human multiple myeloma cell line RPMI8226 was seeded on a 96 well plate in a density of 1×10^4 cells/well, and incubated under 5% carbon dioxide atmosphere at 37° C. overnight. Separately, the compound obtained in Example 2 was dissolved in dimethylsulfoxide, and added to each well so that the final concentration of the compound became 0.5 μM, 1 μM, 2 μM, 3 μM, 12.5 μM, 25 μM or 50 μM.
In addition, melphalan, which is a multiple myeloma therapeutic agent, was added to each well so that the final concentration of the compound became 10 μM, 20 μM, 30 μM, 40 μM or 50 μM as positive controls for comparison. Further, an experimental case in which only dimethylsulfoxide was added in the final concentration of 0.5 v/v % without adding the compound was provided.
Then, after the cell was cultured under 5% carbon dioxide atmosphere at 37° C. for 3 days, an absorbance of formazan, which is an orange pigment produced by a living cell, at the wavelength of 420 nm was measured using a reagent for measuring cell proliferation/cytotoxicity (manufactured by Dojin Chemical Co., Cell Counting Kit-8). […] In addition, IC50 values were calculated from the obtained results.

[3] = system: human promyelocytic leukemia cell line HL60; assay: Survival rate of blood cancer cells (WST-8, 72 hours); conditions: HL-60, 72 h, read-out: EC50, Promyelocytic leukemia cell
Experimental: (§1) Human acute myelogenous leukemia cell line KG1 and human promyelocytic leukemia cell line HL60 in addition to human multiple myeloma cell line RPMI8226 were seeded in a highly nutrient medium containing 10% FES (RPMI1640, 100 μL) in a density of 1×10^3 cells/well. The cells were incubated under 5% carbon dioxide atmosphere at 37° C. overnight. Separately, the compound of Example 2 was dissolved in DMSO and the obtained solution was diluted with the same culture medium. The mixture was added to each well so that the final concentrations of the compound became 0.39 μM, 0.78 μM, 1.56 μM, 3.13 μM, 6.25 μM, 12.5 μM or 50 μM.
(§2) In addition, melphalan, which is a multiple myeloma therapeutic agent, was added to each well at the same final concentrations as positive controls for comparison. Further, an experimental case in which only dimethylsulfoxide was added in the final concentration of 0.2 to 0.8 v/v % without adding the compound was provided.
(§3) Then, after the cells were cultured under 5% carbon dioxide atmosphere at 37° C. for 72 hours, the culture medium was removed and a culture medium obtained by mixing 100 μL of the above culture medium and 10 μL of WST-8, which is a reagent for measuring a cell number, was added to each well. After the cells were cultured under 5% carbon dioxide atmosphere at 37° C. for 2 hours, an absorbance at 450 nm was measured. The absorbance value when the cells were treated with DMSO only was set to be 100%, and a ratio of absorbance values at each concentration of the present invention compound or melphalan relative to the value were calculated as survival rate of each blood cancer cell. In addition, EC50, i.e. 50% effective concentration value, of each compound against each blood cancer cell was calculated from the obtained results.

[4] = system: Human acute myelogenous leukemia cell line KG1; assay: as above; conditions: read-out: EC50, Acute myelogenous leukemia cell
Experimental: as §1, §2, §3

[5] = system: Human multiple myeloma cell line RPMI8226; assay: as above; conditions: RPMI-8226, 72 h, read-out: EC50, Multiple myeloma cell
Experimental: as §1, §2, §3

Structure (SMILES): N[C@@H](Cc1ccc(N(CCCl)CCCl)cc1)C(=O)O [Melphalan, melphalan]
- ratio of stained cells in SP region relative to the total cells ([1]; control (0.5% DMSO only) 0.680 ± 0.0173%): 0.563 ± 0.0777%
- ratio of stained cells in Non-SP region relative to the total cells ([1]; control (0.5% DMSO only) 19.2 ± 0.295%): 5.05 ± 0.414%
- IC50 [2]: 21 µM
- EC50 [3]: 0.734 µM
- EC50 [4]: 3.69 µM
- EC50 [5]: 9.82 µM
